Test results published in publication PMC12299506, “Flipping the Target: Evaluating Natural LDHA Inhibitors for Selective LDHB Modulation” (Molecules, 2025).

What was measured:
LDHA [1] = system: LDHA; set-up: method as in PMID 39054614; details: enzymatic assays; cited from earlier work
LDHB [2] = biological target: T1, LDHB (Homo sapiens, UniProt P07195); experiment: LDHB activity assay, 96-well endpoint colorimetric (lactate to pyruvate, NADH/NBT/PMS formazan, 570 nm); type: biochemical; details: for IC50: dose-response, nonlinear regression
T1 construct: purchased R&D Systems (Minneapolis, MN, USA) 9205-HB
T1 sequence (P07195 whole entry): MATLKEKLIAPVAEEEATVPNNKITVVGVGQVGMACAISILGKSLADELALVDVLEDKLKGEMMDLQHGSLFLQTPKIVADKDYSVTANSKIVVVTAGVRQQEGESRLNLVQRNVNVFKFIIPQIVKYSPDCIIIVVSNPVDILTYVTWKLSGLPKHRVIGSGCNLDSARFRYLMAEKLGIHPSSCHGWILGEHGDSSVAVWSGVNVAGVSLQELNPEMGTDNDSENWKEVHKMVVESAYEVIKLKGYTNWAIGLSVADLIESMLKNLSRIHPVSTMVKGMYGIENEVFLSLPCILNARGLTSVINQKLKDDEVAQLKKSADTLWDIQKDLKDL
Text: This assay is based on the detection of NADH generated during the enzymatic conversion of lactate to pyruvate (via reduction of NAD^+), which subsequently reacts with nitro blue tetrazolium (NBT) in the presence of phenazine methosulfate (PMS). This reaction produces a blue-purple formazan dye with a maximum absorbance at approximately 570 nm.
Unless otherwise specified, all chemicals were obtained from Sigma-Aldrich (St. Louis, MO, USA). Recombinant human LDHB (Catalog #: 9205-HB) was purchased from R&D Systems (Minneapolis, MN, USA). […] AXKO-0046 (Catalog #: HY-147216A) was obtained from MedChemExpress (Monmouth Junction, NJ, USA).
This assay quantifies LDHB activity by measuring NADH generation resulting from the conversion of lactate to pyruvate, a reaction catalyzed by LDHB. The produced NADH reacts with nitro blue tetrazolium (NBT) in the presence of phenazine methosulfate (PMS), generating a blue-purple formazan dye detectable at approximately 570 nm.
The reaction was performed in a buffer containing 50 mM CHES (pH 9.6), 150 mM NaCl, 300 μM NBT, 30 μM PMS, and 0.13% gelatin (used to prevent formazan precipitation). Each well was loaded with 90 μL of the reaction buffer followed by 25 μL of a substrate solution comprising 10 mM NAD^+ and 250 mM sodium lactate in the same buffer. Next, 5 μL of the test compound at varying concentrations was added; the buffer alone was used in the control wells. The plates were incubated for 30 s at 25 °C in the dark before measuring the initial absorbance at 570 nm (Ainitial) using a microplate reader (PerkinElmer, Waltham, MA, USA). The reaction was initiated by adding 2 μL of 7.5 μM LDHB. After a 5 min incubation with continuous shaking, a second absorbance measurement (Afinal) was taken.
The difference in absorbance (ΔA570 = Afinal − Ainitial) was used to calculate the amount of NADH produced by referencing a standard curve (0–15 nmol NADH). Readings were corrected for background using a blank lacking LDHB. One unit of enzyme activity was defined as the amount of enzyme producing 1 μmol of NADH per minute at 25 °C. LDHB activity (mU/mL) was calculated using the following Equation (1):(1) LDH activity(mU/mL)=[NADH](nmol)/Tfinal−Tinitial(min)×V(mL)=nmol/min×mL where [NADH] is the amount (in nmol) of NADH that is released between Tfinal and Tinitial, and V is the sample volume (LDHB in mL) added in each well of the 96-well plate.
IC50 values for each compound were calculated using GraphPad Prism v8.0.2 (GraphPad Software Inc., San Diego, CA, USA) by fitting dose–response curves to the enzymatic activity data via nonlinear regression analysis. All the measurements were performed in triplicate.

LDHB [3] = biological target: T1, LDHB; experiment: Effect of pre-incubation time on LDHB inhibition; type: biochemical; details: pre-incubation with LDHB for 120 min, compound 50 µM
Procedure: Supplementary Figure S2. The eﬀect of pre-incubation time on the inhibitory activity of […]
Each compound (50 µΜ) was incubated with […] of LDHB in a 10 µL reaction within a 96-well plate for varying times. The reaction was carried out in 80 µL of 50 mM CHES buﬀer (pH 9.6) containing 150 mM NaCl, 300 µΜ NBT, 30 µΜ PMS, and 0.13% gelatin, with 10 µL of substrate mix (10 mM NAD+ and 250 mM sodium lactate) added to initiate the reaction. LDHB activity was measured as described in the text, with control wells lacking inhibitors. Statistical signiﬁcance was determined using one way ANONA (p < 0.05), with ʹn.s.ʹ indicating non- […]
(1 picture or pasted object on this page, not shown here)

LDHB [4] = biological target: T1, LDHB; experiment: LDHB kinetic studies (substrate competition, Michaelis-Menten, mixed-model inhibition); type: biochemical; details: for mechanism of LDHB inhibition: Michaelis-Menten analysis, vs lactate and NAD+; for Vmax, NAD+: NAD+ varied, 25 mM sodium lactate; for Vmax, lactate: lactate varied, NAD+ 1 mM; for Ki / α (alpha factor, mechanism of inhibition): mixed-model inhibition fit; for α (alpha factor, mechanism of inhibition): α < 1 uncompetitive
Procedure: These kinetic studies followed the classical Michaelis–Menten framework. For NAD^+ titration, assays were performed using eight NAD^+ concentrations (120, 240, 360, 480, 700, 900, 1000, and 1200 μM) in the presence of 25 mM sodium lactate. For lactate titration, eight lactate concentrations (2.5, 5, 10, 15, 20, 25, 37.5, and 50 mM) were evaluated with a fixed NAD^+ concentration of 1 mM. Each reaction was carried out with 2.5 nM LDHB and increasing concentrations of either inhibitor (5–100 μM), followed by incubation at room temperature for 6.5 min. Initial reaction velocities were determined and fitted to a nonlinear Michaelis–Menten model to extract apparent kinetic parameters (Km and Vmax) using GraphPad Prism v8.0.2 (GraphPad Software Inc., San Diego, CA, USA). Lineweaver–Burk plots (1/V vs. 1/[S]) were also generated to visualize shifts in enzyme kinetics. To complement these analyses, the data were further examined using a mixed-model inhibition approach within GraphPad Prism. This model, which avoids the distortions associated with reciprocal transformations, evaluates inhibition kinetics using polynomial regression and is governed by the following equations [70]. The mixed-model fit is described by Equations (2)–(4), and contains competitive, uncompetitive, and noncompetitive inhibition terms:(2) Vmaxapp=Vmax/(1+I/a·Ki) (3) Kmapp=Km·(1+I/Ki)/(1+I/a·Ki) (4) Y=Vmaxapp·X/(Kmapp+X)
In the above equations, Vmaxapp and Kmapp are the maximum enzyme activity and Michaelis–Menten constant, respectively, in the presence of an inhibitor; Vmax and Km represent the maximum enzyme velocity and Michaelis–Menten constant, respectively, in the absence of an inhibitor; and Ki is the inhibition constant. In addition, X is the substrate concentration, Y is the enzyme activity, I is the inhibitor concentration, and alpha (α) is a coefficient that defines the mechanism of inhibition.

LDHA [5] = system: LDHA; set-up: method as in PMID 34571279; details: EMMA; cited from earlier work
LDHA [6] = details: cited from earlier work
LDHC = details: cited from earlier work

Compound | IC50 (LDHA [1]) [µM] | inhibition at 50 µM (LDHB [2]; compound at 50 µM) [%] | change of inhibitory effect with longer pre-incubation time (LDHB [3]) | mechanism of LDHB inhibition (LDHB [4]) | Vmax, NAD+ (LDHB [4]; inhibitor 10 μM) [mU/mL] | Vmax, NAD+ (LDHB [4]; inhibitor 20 μM) [mU/mL] | Vmax, NAD+ (LDHB [4]; inhibitor 30 μM) [mU/mL] | Vmax, NAD+ (LDHB [4]; inhibitor 40 μM) [mU/mL] | Vmax, NAD+ (LDHB [4]; inhibitor 50 μM) [mU/mL] | Vmax, NAD+ (LDHB [4]; inhibitor 75 μM) [mU/mL] | Vmax, NAD+ (LDHB [4]; inhibitor 100 μM) [mU/mL] | Vmax, lactate (LDHB [4]; inhibitor 10 μM) [mU/mL] | Vmax, lactate (LDHB [4]; inhibitor 20 μM) [mU/mL] | Vmax, lactate (LDHB [4]; inhibitor 30 μM) [mU/mL] | Vmax, lactate (LDHB [4]; inhibitor 40 μM) [mU/mL] | Vmax, lactate (LDHB [4]; inhibitor 50 μM) [mU/mL] | Vmax, lactate (LDHB [4]; inhibitor 75 μM) [mU/mL] | Vmax, lactate (LDHB [4]; inhibitor 100 μM) [mU/mL] | inhibition rate of LDHA activity (LDHA [5]) | IC50 (LDHB [2]) [µM] | further results
O=c1c(O)c(-c2ccc(O)c(O)c2)oc2cc(O)ccc12 [Fisetin] | 0.066 | ~22 | – | – | – | – | – | – | – | – | – | – | – | – | – | – | – | – | – | – | –
O=c1cc(-c2ccc(O)c(O)c2)oc2cc(O)cc(O)c12 [Luteolin] | 1.79 | ~55 | did not increase | uncompetitive inhibition | 945 ± 27 | 868 ± 35 | 774 ± 32 | 664 ± 40 | 563 ± 29 | 456 ± 27 | 417 ± 22 | 942 ± 31 | 888 ± 16 | 832 ± 21 | 749.2 ± 17 | 624 ± 24 | 506 ± 15 | 406 ± 22 | 50.7% | 32.2 | Ki (LDHB [4]; with NAD+): 194 µM; α (alpha factor, mechanism of inhibition) (LDHB [4]; with NAD+): 0.34; Ki (LDHB [4]; with lactate): 349 µM; α (alpha factor, mechanism of inhibition) (LDHB [4]; with lactate): 0.21
Cc1cc2c(C(C)C)c(O)c(O)c(C=O)c2c(O)c1-c1c(C)cc2c(C(C)C)c(O)c(O)c(C=O)c2c1O [gossypol, Gossypol] | – | – | – | – | – | – | – | – | – | – | – | – | – | – | – | – | – | – | – | – | Ki (LDHA [6]): 1.9 µM; Ki (LDHC): 4.2 µM
CC[C@@]1(O)C(=O)OCc2c1cc1n(c2=O)Cc2cc3ccccc3nc2-1 [Camptothecin] | – | – | – | – | – | – | – | – | – | – | – | – | – | – | – | – | – | – | no inhibitory effect | – | inhibition of LDHB activity (LDHB [2]; compound at 50 µM): minimal inhibition
O=c1c(O)c(-c2ccc(O)c(O)c2)oc2cc(O)cc(O)c12 [Quercetin] | 33.6 | ~50 | did not increase | uncompetitive inhibition | 952 ± 36 | 861 ± 22 | 761 ± 52 | 701 ± 44 | 605 ± 46 | 504 ± 44 | 454 ± 33 | 938 ± 29 | 881 ± 19 | 791 ± 37 | 689 ± 53 | 621 ± 23 | 557 ± 37 | 478 ± 26 | 53.6% | 37.7 | Ki (LDHB [4]; with NAD+): 539 µM; α (alpha factor, mechanism of inhibition) (LDHB [4]; with NAD+): 0.14; Ki (LDHB [4]; with lactate): 265 µM; α (alpha factor, mechanism of inhibition) (LDHB [4]; with lactate): 0.31
c1ccc(CNCCc2c(CNC3CCCCCC3)[nH]c3ccccc23)cc1 [AXKO-0046, reference compound] | – | ~75 | – | – | – | – | – | – | – | – | – | – | – | – | – | – | – | – | – | 0.00556 | –
